Source: US10428055B2, “Substituted piperidines having GPR119 agonistic activity” (DONG-A ST CO., LTD., priority 2014, dated 2019)

Biological target: T1, Human GPR119 (Homo sapiens, UniProt Q8TDV5)
T1 construct: host or cells: HEK293 (ATCC)
T1 sequence (Q8TDV5 1-335): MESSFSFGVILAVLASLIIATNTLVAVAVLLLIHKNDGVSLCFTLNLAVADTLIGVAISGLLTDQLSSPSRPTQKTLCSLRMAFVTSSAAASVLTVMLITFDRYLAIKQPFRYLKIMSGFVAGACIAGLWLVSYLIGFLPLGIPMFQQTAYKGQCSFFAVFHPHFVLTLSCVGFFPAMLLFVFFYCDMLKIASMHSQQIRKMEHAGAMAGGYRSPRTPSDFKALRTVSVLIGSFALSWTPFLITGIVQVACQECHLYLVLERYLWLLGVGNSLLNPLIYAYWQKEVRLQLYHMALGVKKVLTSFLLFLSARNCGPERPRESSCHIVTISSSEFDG
Assay: Human GPR119 activation assay (cAMP, HTRF)
Assay type: cell-based
Conditions: 1 h, HEK293 cells transiently expressing human GPR119, relative to maximum effect of OEA, read-out: hGPR119 activation ability (cAMP assay) Relative Response % vs OEA; for Emax at 0.001 µM: 1 nM; for Emax at 0.01 µM: 10 nM
From the text: <Experimental Example 1>Human GPR119 activation assay
Human GPR119 was temporarily expressed on cells, thereby quantifying the amount of cyclic adenosine 3′,5′-monophosphate (cAMP) increased upon activating GPR119 by the compound of the present invention, using the product from Cysbio, by a method of HTRF (homogeneous time resolved fluorescence), and such quantification was used to refer to efficacy on GPR119 activation.
Human GPR119 expression vector (Origene) was overexpressed in […] renal epithelial cells (HEK293) (ATCC), and the cells were stabilized for 48 hours. With a solution of 11.1 mM glucose, 0.1% bovine serum albumin, and 0.5 mM IBMX (3-isobutyl-1-methylxanthine) which is a phosphodiesterase inhibitor being added to a KRBH (Krebs-Ringer Bicarbonate HEPES; Hou ZQ. et al., Mol Cell Endocrinol, 2008(291):71-78) buffer, the cells were pre-treated for 10 minutes. Thereafter, the cells were treated with the same solution containing a drug for 60 minutes, then the supernatant was removed, and the increase in cAMP in cells was quantified using a Cysbio cAMP HiRange kit.
As to the maximum efficacy of compounds tested, multiple concentration assessment for the compounds of the present invention was carried out, thereby assessing the relative activation level (%) to the maximum effect of oleoylethanolamide (OEA), an endogenous ligand of GPR119.

| Compound | Emax at 0.001 µM | Emax at 0.01 µM |
| --- | --- | --- |
| Cc1nc(-c2c(F)cc(OCCCC3CCN(c4nc(C(C)C)no4)CC3)cc2F)no1 [Example 39, 3-(2,6-difluoro-4-(3-(1-(3-isopropyl-1,2,4-oxadiazol-5-yl)piperidin-4-yl)propoxy)phenyl)-5-methyl-1,2,4-oxadiazole] | 120% | 201% |
| CC(C)Cc1nc(-c2cnc(N3CCC(CCCOc4cc(F)c(-c5noc(C(C)C)n5)c(F)c4)CC3)nc2)no1 [Example 32, 3-(2,6-difluoro-4-(3-(1-(5-(5-isobutyl-1,2,4-oxadiazol-3-yl)pyrimidin-2-yl)piperidin-4-yl)propoxy)phenyl)-5-isopropyl-1,2,4-oxadiazole] | 201% | 288% |
| CC(C)Oc1cnc(N2CCC(CCCOc3cc(F)c(-c4noc(C(C)C)n4)c(F)c3)CC2)nc1 [Example 27, 3-(2,6-difluoro-4-(3-(1-(5-isopropoxypyrimidin-2-yl)piperidin-4-yl)propoxy)phenyl)-5-isopropyl-1,2,4-oxadiazole] | 9.4% | 123% |
| CC(C)c1nnc(-c2c(F)cc(OCCCC3CCN(c4ncc(C(F)(F)F)cn4)CC3)cc2F)o1 [Example 48, 2-(2,6-difluoro-4-(3-(1-(5-(trifluoromethyl)pyrimidin-2-yl)piperidin-4-yl)propoxy)phenyl)-5-isopropyl-1,3,4-oxadiazole] | 163% | 441% |
| CCc1cnc(N2CCC(CCCOc3cc(F)c(-c4noc(C[C@@H](C)O)n4)c(F)c3)CC2)nc1 [Example 20, (R)-1-(3-(4-(3-(1-(5-ethylpyrimidin-2-yl)piperidin-4-yl)propoxy)-2,6-difluorophenyl)-1,2,4-oxadiazol-5-yl) propan-2-ol] | 235% | 413% |
| CC(C)c1nnc(-c2c(F)cc(OCCCC3CCN(c4ncc(F)cn4)CC3)cc2F)s1 [Example 63, 2-(2,6-difluoro-4-(3-(1-(5-fluoropyrimidin-2-yl)piperidin-4-yl)propoxy)phenyl)-5-isopropyl-1,3,4-thiadiazole] | 114% | 228% |
| CCc1cnc(N2CCC(CCCOc3cc(F)c(C4=N[C@@H](C)CO4)c(F)c3)CC2)nc1 [Example 3, (S)-2-(4-(3-(1-(5-ethylpyrimidin-2-yl)piperidin-4-yl)propoxy)-2,6-difluorophenyl)-4-methyl-4,5-dihydrooxazole] | 192% | 47.8% |
| Cc1nc(-c2c(F)cc(OCCCC3CCN(c4ncc(-c5noc(CC(C)C)n5)cn4)CC3)cc2F)no1 [Example 30, 3-(2,6-difluoro-4-(3-(1-(5-(5-isobutyl-1,2,4-oxadiazol-3-yl)pyrimidin-2-yl)piperidin-4-yl)propoxy)phenyl)-5-methyl-1,2,4-oxadiazole] | 103% | 172% |
| CCc1nc(-c2c(F)cc(OCCCC3CCN(c4ncc(-c5noc(CC(C)C)n5)cn4)CC3)cc2F)no1 [Example 31, 3-(2,6-difluoro-4-(3-(1-(5-(5-isobutyl-1,2,4-oxadiazol-3-yl)pyrimidin-2-yl)piperidin-4-yl)propoxy)phenyl)-5-ethyl-1,2,4-oxadiazole] | 59.4% | 116% |
| Cc1nnc(-c2c(F)cc(OCCCC3CCN(c4cnc(Cl)cn4)CC3)cc2F)o1 [Example 49, 2-(4-(3-(1-(5-chloropyrazin-2-yl)piperidin-4-yl)propoxy)-2,6-difluorophenyl)-5-methyl-1,3,4-oxadiazole] | 83.4% | 121% |
| CCc1nnc(-c2c(F)cc(OCCCC3CCN(c4nc(C(C)C)no4)CC3)cc2F)o1 [Example 56, 5-(4-(3-(4-(5-ethyl-1,3,4-oxadiazol-2-yl)-3,5-difluorophenoxy)propyl)piperidin-1-yl)-3-isopropyl-1,2,4-oxadiazole] | 265% | 373% |
| Cc1nnc(-c2c(F)cc(OCCCC3CCN(c4nc(CC(F)(F)F)no4)CC3)cc2F)o1 [Example 58, 5-(4-(3-(3,5-difluoro-4-(5-methyl-1,3,4-oxadiazol-2-yl)phenoxy)propyl)piperidin-1-yl)-3-(2,2,2-trifluoroethyl)-1,2,4-oxadiazole] | 699% |  |
| CC(C)c1nc(-c2c(F)cc(OCCCC3CCN(c4ncc(Br)cn4)CC3)cc2F)no1 [Example 29, 3-(4-(3-(1-(5-bromopyrimidin-2-yl)piperidin-4-yl)propoxy)-2,6-difluorophenyl)-5-isopropyl-1,2,4-oxadiazole] | 75.3% | 173% |
| COc1cnc(N2CCC(CCCOc3cc(F)c(-c4noc(C(C)C)n4)c(F)c3)CC2)nc1 [Example 26, 3-(2,6-difluoro-4-(3-(1-(5-methoxypyrimidin-2-yl)piperidin-4-yl)propoxy)phenyl)-5-isopropyl-1,2,4-oxadiazole] | 67.8% | 165% |
| CCCc1noc(N2CCC(CCCOc3cc(F)c(-c4nnc(C)o4)c(F)c3)CC2)n1 [Example 52, 5-(4-(3-(3,5-difluoro-4-(5-methyl-1,3,4-oxadiazol-2-yl)phenoxy)propyl)piperidin-1-yl)-3-propyl-1,2,4-oxadiazole] | 191% | 295% |
| CCc1cnc(N2CCC(CCCOc3cc(F)c(-c4noc(C(C)(C)C)n4)c(F)c3)CC2)nc1 [Example 16, 5-(tert-butyl)-3-(4-(3-(1-(5-ethylpyrimidin-2-yl)piperidin-4-yl)propoxy)-2,6-difluorophenyl)-1,2,4-oxadiazole] | 108% | 321% |
| CCC(C)c1nc(-c2c(F)cc(OCCCC3CCN(c4ncc(-c5noc(CC(C)C)n5)cn4)CC3)cc2F)no1 (stereo not drawn) [Example 33, 5-(sec-butyl)-3-(2,6-difluoro-4-(3-(1-(5-(5-isobutyl-1,2,4-oxadiazol-3-yl)pyrimidin-2-yl)piperidin-4-yl)propoxy)phenyl)-1,2,4-oxadiazole] | 66.8% | 108% |
| CC[C@H](O)c1nc(-c2c(F)cc(OCCCC3CCN(c4ncc(-c5noc(CC(C)C)n5)cn4)CC3)cc2F)no1 [Example 35, (S)-1-(3-(2,6-difluoro-4-(3-(1-(5-(5-isobutyl-1,2,4-oxadiazol-3-yl)pyrimidin-2-yl)piperidin-4-yl)propoxy)phenyl)-1,2,4-oxadiazol-5-yl) propan-1-ol] | 52.5% | 118% |
| CCc1cnc(N2CCC(CCCOc3cc(F)c(-c4noc(CO)n4)c(F)c3)CC2)nc1 [Example 17, (3-(4-(3-(1-(5-ethylpyrimidin-2-yl)piperidin-4-yl)propoxy)-2,6-difluorophenyl)-1,2,4-oxadiazol-5-yl)methanol] | 116% | 216% |
| CCc1cnc(N2CCC(CCCOc3cc(F)c(-c4nnc(C(C)C)s4)c(F)c3)CC2)nc1 [Example 60, 2-(4-(3-(1-(5-ethylpyrimidin-2-yl)piperidin-4-yl)propoxy)-2,6-difluorophenyl)-5-isopropyl-1,3,4-thiadiazole] | 285% | 516% |
| CCc1cnc(N2CCC(CCCOc3cc(F)c(C4=N[C@H](C)CO4)c(F)c3)CC2)nc1 [Example 2, (R)-2-(4-(3-(1-(5-ethylpyrimidin-2-yl)piperidin-4-yl)propoxy)-2,6-difluorophenyl)-4-methyl-4,5-dihydrooxazole] | 34.8% | 113% |
| CCc1cnc(N2CCC(CCCOc3cc(F)c(-c4nnc(C(C)C)o4)c(F)c3)CC2)nc1 [Example 44, 2-(4-(3-(1-(5-ethylpyrimidin-2-yl)piperidin-4-yl)propoxy)-2,6-difluorophenyl)-5-isopropyl-1,3,4-oxadiazole] | 493% | 830% |
| CC(C)c1nc(-c2c(F)cc(OCCCC3CCN(c4cnc(Cl)cn4)CC3)cc2F)no1 [Example 37, 3-(4-(3-(1-(5-chloropyrazin-2-yl)piperidin-4-yl)propoxy)-2,6-difluorophenyl)-5-isopropyl-1,2,4-oxadiazole] | 52.1% | 307% |
